Data from patent US10952999B2, “Inhibitor of cyclin-dependent kinase CDK9” (GENFLEET THERAPEUTICS (SHANGHAI) INC., priority 2017, dated 2021).

Assays:
Format in all cases: cell-based
[1] = test system: phosphorylation of RNAPII, MCL-1, and c-MYC in NB-4; assay: Effect on signaling pathway downstream of CDK9; details: NB-4, 0.03-3 μM, 2 hours
Procedure: (§1) Against four cells, acute myelocytic leukemia cell line (AML) OCI-AML-3, acute promyelocytic leukemia cell line NB-4, acute myelocytic leukemia cell line (AML) HL-60 and acute myelocytic leukemia cell line (AML) MV4-11 (all purchased from ATCC), by measuring the biochemical endpoints and functional endpoints of multiple cells, the effect of compound 1 was evaluated on CDK9 in cells and other protein kinases related to its signaling pathway, such as RNAPII, XIAP, MCL-1, c-MYC, BCL-2 and so on. […] The effect of Compound 1 on the phosphorylation of CDK9, RNAPII, XIAP, MCL-1, c-MYC, BCL-2 in these cell lines was determined (FIG. 1a-d).

[2] = test system: phosphorylation of RNAPII, MCL-1, and c-MYC in OCI-AML-3; assay: Effect on signaling pathway downstream of CDK9; details: OCI-AML-3, 0.03-3 μM, 2 hours
Procedure: as §1

[3] = test system: acute myelocytic leukemia cell line (AML) HL-60; assay: Effect on apoptosis, Western Blot of PARP and Caspase 3 shear; details: HL-60, 0.01-0.1 μM, 24 hours
Description: (§2) Western Blot was used to detect the effects of drugs in different concentrations on DNA repair enzyme polyadenylation diphosphate-ribose polymerase PARP and protein shear of cysteine-containing aspartate proteolytic enzyme Caspase 3 at different time intervals.

[4] = test system: acute myelocytic leukemia cell line (AML) MV4-11; assay: as above; details: MV4-11, 0.01-0.1 μM, 24 hours
Description: as §2

[5] = test system: acute myelocytic leukemia cell line (AML) OCI-AML-3; assay: as above; details: OCI-AML-3, 0.01-0.1 μM, 24 hours
Description: as §2

[6] = test system: acute promyelocytic leukemia cell line NB-4; assay: as above; details: NB-4, 0.01-0.1 μM, 24 hours
Description: as §2

COC[C@@H](C)N[C@H]1CC[C@H](Nc2cc(-c3csc(NCC4(C#N)CCOCC4)n3)c(Cl)cn2)CC1 [Compound 1, 4-(((4-(5-chloro-2-(((1R,4r)-4-(((R)-1-methoxypropyl-2-yl)amino)cyclohexyl)amino)pyridin-4-yl)thiazol-2-yl)amino)methyl)tetrahydro-2H-pyran-4-carbonitrile]
significant inhibitory effect: effect on the phosphorylation of RNAPII, MCL-1, and c-MYC directly downstream of CDK9 protein [1] | effect on the phosphorylation of RNAPII, MCL-1, and c-MYC directly downstream of CDK9 protein [2]
could cause apoptosis: apoptosis (shear of PARP or Caspase 3) [3] | apoptosis (shear of PARP or Caspase 3) [4] | apoptosis (shear of PARP or Caspase 3) [5] | apoptosis (shear of PARP or Caspase 3) [6]
